{"source": "patent US9187523B2", "about": "(priority 2006, dated 2015)", "test_system": "Yersinia pestis cells lacking plague plasminogen activator gene", "assay_type": "cell-based", "note": "Where a SMILES comes first, the peptide text is derived from it. The star is where a group is joined. Dabcyl = CN(C)c1ccc(N=Nc2ccc(C(=O)*)cc2)cc1; EDANS = O=S(=O)(O)c1cccc2c(NCCN*)cccc12"}
{"smiles": "CC[C@H](C)[C@H](NC(=O)[C@H](CCCNC(=N)N)NC(=O)[C@H](CCCNC(=N)N)NC(=O)c1ccc(N=Nc2ccc(N(C)C)cc2)cc1)C(=O)N[C@@H](CC(N)=O)C(=O)N[C@@H](CCCNC(=N)N)C(=O)N[C@@H](CCC(=O)NCCNc1cccc2c(S(=O)(=O)O)cccc12)C(N)=O", "note": "[DABCYL-Arg-Arg-Ile-Asn-Arg-Glu-(EDANS)-NH2] (Dabcyl-RRINRE(EDANS)-NH2)", "values": [{"measurement": "fluorescence with Pla-negative mutant", "value": "low background fluorescence"}]}
